In publication PMC7614683, “A small molecule PI3Kα activator for cardioprotection and neuroregeneration” (Nature, 2023):
Like-named read-outs stand apart in the source and are kept apart here.

Tests used:
Assay in all cases: SelectScreen Z-LYTE kinase activity assay (SI Table 6)
Assay type in all cases: biochemical
[1] = biological target: protein kinases of the Z-LYTE panel (Homo sapiens, UniProt P24941)
Outline: (§1)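 A counterscreen of 133 protein and 7 lipid kinases was run with one compound concentration, 1 μM 1938, in SelectScreen Adapta, Lantha or Z-LYTE assays.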

[2] = biological target: T1, protein kinases of the Z-LYTE panel (Homo sapiens, UniProt Q9UQB9)
T1 sequence (Q9UQB9 1-309): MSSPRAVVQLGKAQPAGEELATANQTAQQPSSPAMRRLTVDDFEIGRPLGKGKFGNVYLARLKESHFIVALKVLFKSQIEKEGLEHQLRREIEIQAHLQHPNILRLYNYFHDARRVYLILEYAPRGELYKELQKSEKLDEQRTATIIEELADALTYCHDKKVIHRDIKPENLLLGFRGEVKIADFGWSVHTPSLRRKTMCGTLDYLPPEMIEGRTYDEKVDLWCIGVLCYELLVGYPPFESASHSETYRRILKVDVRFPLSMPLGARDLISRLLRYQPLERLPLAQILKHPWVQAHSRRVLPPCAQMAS
Outline: as §1

[3] = biological target: protein kinases of the Z-LYTE panel (Homo sapiens, UniProt Q04912)
Outline: as §1

[4] = biological target: T2, protein kinases of the Z-LYTE panel (Homo sapiens, UniProt Q13976)
T2 sequence (Q13976 1-671): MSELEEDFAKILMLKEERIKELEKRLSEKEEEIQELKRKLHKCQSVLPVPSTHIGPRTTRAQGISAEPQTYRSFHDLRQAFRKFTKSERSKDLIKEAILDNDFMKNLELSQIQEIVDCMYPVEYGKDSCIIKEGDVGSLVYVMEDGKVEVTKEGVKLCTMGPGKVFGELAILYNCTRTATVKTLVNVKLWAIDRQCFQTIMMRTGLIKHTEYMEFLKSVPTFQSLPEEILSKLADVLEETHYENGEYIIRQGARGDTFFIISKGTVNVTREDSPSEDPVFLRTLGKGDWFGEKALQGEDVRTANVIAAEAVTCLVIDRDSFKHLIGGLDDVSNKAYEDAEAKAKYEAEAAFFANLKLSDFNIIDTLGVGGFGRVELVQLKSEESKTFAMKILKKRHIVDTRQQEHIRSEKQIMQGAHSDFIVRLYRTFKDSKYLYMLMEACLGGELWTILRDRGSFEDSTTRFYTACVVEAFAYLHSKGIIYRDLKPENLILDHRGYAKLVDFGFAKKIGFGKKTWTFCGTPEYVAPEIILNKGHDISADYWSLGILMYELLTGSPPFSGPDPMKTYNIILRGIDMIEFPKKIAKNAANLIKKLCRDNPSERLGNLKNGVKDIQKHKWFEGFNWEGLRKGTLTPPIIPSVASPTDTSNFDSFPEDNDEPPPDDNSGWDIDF
Outline: as §1

[5] = biological target: protein kinases of the Z-LYTE panel (Homo sapiens, UniProt P07332)
Outline: as §1

[6] = biological target: protein kinases of the Z-LYTE panel (Homo sapiens, UniProt P49841)
Outline: as §1

[7] = biological target: protein kinases of the Z-LYTE panel (Homo sapiens, UniProt P00519)
Outline: as §1

[8] = biological target: protein kinases of the Z-LYTE panel (Homo sapiens, UniProt P07948)
Outline: as §1

[9] = biological target: protein kinases of the Z-LYTE panel (Homo sapiens, UniProt P54756)
Outline: as §1

Sequence of protein kinases of the Z-LYTE panel (Homo sapiens, UniProt P49841) (P49841 whole entry): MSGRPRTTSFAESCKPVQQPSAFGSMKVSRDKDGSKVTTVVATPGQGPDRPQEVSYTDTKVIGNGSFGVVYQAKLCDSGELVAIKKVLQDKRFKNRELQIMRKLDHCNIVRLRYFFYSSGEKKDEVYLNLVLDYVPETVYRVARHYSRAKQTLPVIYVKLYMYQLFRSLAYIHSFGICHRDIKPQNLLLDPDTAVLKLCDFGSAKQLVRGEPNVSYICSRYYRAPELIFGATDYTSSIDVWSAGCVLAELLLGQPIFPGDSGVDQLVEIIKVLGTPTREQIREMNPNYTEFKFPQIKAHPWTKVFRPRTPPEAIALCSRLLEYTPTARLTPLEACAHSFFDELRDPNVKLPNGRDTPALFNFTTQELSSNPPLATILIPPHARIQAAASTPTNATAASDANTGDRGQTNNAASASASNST
Sequence of protein kinases of the Z-LYTE panel (Homo sapiens, UniProt P54756) (P54756 25-1037): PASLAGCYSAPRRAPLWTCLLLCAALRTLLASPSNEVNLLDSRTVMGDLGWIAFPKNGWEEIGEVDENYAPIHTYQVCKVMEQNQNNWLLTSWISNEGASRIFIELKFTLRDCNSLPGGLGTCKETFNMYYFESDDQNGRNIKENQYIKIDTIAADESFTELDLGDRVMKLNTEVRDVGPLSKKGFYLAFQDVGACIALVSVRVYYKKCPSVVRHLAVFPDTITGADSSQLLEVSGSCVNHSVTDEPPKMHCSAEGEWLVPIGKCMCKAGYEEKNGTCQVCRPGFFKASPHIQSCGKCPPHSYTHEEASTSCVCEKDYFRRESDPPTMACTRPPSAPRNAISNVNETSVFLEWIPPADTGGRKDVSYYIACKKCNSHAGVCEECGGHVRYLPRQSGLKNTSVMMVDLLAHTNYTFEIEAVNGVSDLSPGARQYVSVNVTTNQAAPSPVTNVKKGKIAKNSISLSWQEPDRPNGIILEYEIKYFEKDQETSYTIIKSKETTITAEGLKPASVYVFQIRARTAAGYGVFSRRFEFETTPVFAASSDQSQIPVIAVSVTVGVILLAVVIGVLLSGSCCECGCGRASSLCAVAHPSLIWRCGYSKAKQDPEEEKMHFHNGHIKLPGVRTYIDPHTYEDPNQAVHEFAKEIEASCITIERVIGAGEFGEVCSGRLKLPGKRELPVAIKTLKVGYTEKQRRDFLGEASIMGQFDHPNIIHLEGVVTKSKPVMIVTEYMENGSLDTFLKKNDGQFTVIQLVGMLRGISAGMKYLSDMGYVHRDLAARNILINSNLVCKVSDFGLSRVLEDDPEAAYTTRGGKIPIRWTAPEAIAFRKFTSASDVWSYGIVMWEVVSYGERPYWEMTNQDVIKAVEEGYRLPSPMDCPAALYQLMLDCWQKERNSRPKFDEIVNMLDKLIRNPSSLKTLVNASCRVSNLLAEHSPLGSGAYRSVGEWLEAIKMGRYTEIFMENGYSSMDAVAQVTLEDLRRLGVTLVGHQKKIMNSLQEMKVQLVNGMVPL
Sequence of protein kinases of the Z-LYTE panel (Homo sapiens, UniProt P00519) (P00519 whole entry): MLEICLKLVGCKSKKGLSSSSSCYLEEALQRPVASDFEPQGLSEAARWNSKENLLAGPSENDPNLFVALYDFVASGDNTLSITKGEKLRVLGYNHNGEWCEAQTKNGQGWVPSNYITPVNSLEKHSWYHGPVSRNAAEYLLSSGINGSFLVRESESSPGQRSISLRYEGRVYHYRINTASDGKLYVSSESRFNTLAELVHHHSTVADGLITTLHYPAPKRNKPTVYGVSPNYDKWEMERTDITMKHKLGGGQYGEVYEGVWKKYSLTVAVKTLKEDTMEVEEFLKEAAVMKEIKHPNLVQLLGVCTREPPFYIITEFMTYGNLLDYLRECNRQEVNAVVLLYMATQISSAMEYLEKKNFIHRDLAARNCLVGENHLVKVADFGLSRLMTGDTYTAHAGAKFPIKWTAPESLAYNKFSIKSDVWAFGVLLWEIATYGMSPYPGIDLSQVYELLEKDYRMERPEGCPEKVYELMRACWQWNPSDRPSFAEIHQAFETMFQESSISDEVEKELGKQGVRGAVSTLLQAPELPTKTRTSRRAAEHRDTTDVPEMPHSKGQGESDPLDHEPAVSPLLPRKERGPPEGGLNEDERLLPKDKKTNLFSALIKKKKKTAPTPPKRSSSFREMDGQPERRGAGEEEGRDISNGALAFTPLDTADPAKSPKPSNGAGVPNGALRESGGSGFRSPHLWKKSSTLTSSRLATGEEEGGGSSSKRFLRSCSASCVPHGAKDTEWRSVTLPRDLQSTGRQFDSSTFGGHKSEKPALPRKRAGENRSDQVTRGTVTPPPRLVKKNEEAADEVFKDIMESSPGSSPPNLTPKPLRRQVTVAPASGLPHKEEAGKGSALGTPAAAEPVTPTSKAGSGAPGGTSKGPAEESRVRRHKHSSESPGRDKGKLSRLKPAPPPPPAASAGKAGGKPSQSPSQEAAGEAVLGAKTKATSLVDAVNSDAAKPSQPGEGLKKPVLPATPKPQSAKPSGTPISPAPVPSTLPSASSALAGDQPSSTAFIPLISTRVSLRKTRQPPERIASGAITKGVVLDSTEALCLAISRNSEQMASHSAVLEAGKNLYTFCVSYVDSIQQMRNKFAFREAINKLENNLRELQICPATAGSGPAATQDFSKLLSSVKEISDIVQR
Sequence of protein kinases of the Z-LYTE panel (Homo sapiens, UniProt Q04912) (Q04912 25-1400): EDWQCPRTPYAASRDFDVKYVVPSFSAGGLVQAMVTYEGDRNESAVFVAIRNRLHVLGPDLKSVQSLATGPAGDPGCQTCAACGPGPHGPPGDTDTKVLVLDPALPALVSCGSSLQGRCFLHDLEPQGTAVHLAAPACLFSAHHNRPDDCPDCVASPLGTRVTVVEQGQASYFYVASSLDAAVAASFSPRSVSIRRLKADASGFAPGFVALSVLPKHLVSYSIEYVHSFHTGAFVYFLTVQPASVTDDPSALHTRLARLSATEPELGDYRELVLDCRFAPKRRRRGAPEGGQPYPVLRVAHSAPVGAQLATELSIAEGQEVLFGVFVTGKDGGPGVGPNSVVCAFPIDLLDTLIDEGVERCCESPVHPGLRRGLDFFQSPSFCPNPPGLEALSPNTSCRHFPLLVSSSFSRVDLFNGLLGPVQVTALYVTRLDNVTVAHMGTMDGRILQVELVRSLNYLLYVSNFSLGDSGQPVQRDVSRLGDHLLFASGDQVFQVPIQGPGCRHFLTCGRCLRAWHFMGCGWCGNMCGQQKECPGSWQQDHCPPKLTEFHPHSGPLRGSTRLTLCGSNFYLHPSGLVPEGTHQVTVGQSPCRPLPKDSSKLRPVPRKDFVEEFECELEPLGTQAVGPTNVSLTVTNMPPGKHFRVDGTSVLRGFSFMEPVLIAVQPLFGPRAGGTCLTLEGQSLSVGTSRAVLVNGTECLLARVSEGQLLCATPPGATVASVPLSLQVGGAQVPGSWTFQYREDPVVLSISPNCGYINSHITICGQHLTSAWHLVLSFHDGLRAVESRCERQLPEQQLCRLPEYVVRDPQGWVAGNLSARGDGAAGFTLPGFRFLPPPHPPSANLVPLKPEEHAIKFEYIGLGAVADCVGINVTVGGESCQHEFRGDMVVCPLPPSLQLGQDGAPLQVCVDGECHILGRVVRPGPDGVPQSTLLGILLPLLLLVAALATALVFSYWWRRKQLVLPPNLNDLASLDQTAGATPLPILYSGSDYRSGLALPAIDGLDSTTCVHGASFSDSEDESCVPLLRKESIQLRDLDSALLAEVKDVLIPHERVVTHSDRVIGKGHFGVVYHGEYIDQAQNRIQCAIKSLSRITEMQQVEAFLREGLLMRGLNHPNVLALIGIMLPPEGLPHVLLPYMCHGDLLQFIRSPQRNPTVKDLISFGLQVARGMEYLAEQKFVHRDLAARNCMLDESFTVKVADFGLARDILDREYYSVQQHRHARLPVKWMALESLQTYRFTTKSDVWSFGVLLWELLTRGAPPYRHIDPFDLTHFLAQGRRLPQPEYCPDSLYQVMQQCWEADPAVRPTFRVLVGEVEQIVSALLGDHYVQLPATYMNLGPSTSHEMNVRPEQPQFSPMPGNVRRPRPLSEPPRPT
Sequence of protein kinases of the Z-LYTE panel (Homo sapiens, UniProt P07948) (P07948 whole entry): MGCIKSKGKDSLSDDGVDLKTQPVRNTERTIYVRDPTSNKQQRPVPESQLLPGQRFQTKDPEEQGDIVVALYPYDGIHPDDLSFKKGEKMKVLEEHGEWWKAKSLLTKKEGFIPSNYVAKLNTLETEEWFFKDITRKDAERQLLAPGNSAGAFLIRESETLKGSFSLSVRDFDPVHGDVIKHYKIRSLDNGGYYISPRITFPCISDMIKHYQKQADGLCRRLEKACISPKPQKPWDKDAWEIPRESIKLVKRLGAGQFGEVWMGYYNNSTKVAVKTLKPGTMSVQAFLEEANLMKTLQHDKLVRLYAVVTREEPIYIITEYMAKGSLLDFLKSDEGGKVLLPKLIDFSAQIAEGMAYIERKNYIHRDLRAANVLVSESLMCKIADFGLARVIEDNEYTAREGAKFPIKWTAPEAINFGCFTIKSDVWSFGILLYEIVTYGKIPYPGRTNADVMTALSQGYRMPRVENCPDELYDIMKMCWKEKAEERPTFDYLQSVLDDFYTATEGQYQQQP

**Q.** How did the inhibition at 1 µM ([1]; read-out: % Inhibition Point 1) turn out when `CCN1CCN(c2ccc(Nc3cc(Nc4cccc5c4N(C(C)=O)CC5)ccn3)cc2)CC1` [Compound 1938] was run?
**A.** The inhibition at 1 µM was 1.74%.

**Q.** And the inhibition at 1 µM ([1]; read-out: % Inhibition Point 2)?
**A.** The inhibition at 1 µM was 3.28%.

**Q.** What about the inhibition at 1 µM ([1]; read-out: % Inhibition mean) of the same molecule?
**A.** Its inhibition at 1 µM is 2.51%.

**Q.** What about the inhibition at 1 µM ([2]; read-out: % Inhibition Point 1) of the same molecule?
**A.** Its inhibition at 1 µM is 39%.

**Q.** What about the inhibition at 1 µM ([2]; read-out: % Inhibition Point 2) of the same molecule?
**A.** Its inhibition at 1 µM is 35%.

**Q.** What about the inhibition at 1 µM ([2]; read-out: % Inhibition mean) of the same molecule?
**A.** Its inhibition at 1 µM is 37%.

**Q.** What about the inhibition at 1 µM ([3]; read-out: % Inhibition Point 1) of the same molecule?
**A.** The inhibition at 1 µM was 8%.

**Q.** What about the inhibition at 1 µM ([3]; read-out: % Inhibition Point 2) of the same molecule?
**A.** Its inhibition at 1 µM is 8.5%.

**Q.** What about the inhibition at 1 µM ([3]; read-out: % Inhibition mean) of the same molecule?
**A.** Its inhibition at 1 µM is 8%.

**Q.** And the inhibition at 1 µM ([4]; read-out: % Inhibition Point 1)?
**A.** The inhibition at 1 µM was 4.68%.

**Q.** What about the inhibition at 1 µM ([4]; read-out: % Inhibition Point 2) of the same molecule?
**A.** Its inhibition at 1 µM is -0.193%.

**Q.** And the inhibition at 1 µM ([4]; read-out: % Inhibition mean)?
**A.** The inhibition at 1 µM was 2.24%.

**Q.** What about the inhibition at 1 µM ([5]; read-out: % Inhibition Point 1) of the same molecule?
**A.** The inhibition at 1 µM was 7%.

**Q.** And the inhibition at 1 µM ([5]; read-out: % Inhibition Point 2)?
**A.** Its inhibition at 1 µM is 8%.

**Q.** And the inhibition at 1 µM ([5]; read-out: % Inhibition mean)?
**A.** The inhibition at 1 µM was 7.57%.

**Q.** What about the inhibition at 1 µM ([6]; read-out: % Inhibition Point 1) of the same molecule?
**A.** Its inhibition at 1 µM is 5.38%.

**Q.** And the inhibition at 1 µM ([6]; read-out: % Inhibition Point 2)?
**A.** Its inhibition at 1 µM is 5%.

**Q.** What about the inhibition at 1 µM ([6]; read-out: % Inhibition mean) of the same molecule?
**A.** Its inhibition at 1 µM is 5%.

**Q.** What about the inhibition at 1 µM ([7]; read-out: % Inhibition Point 1) of the same molecule?
**A.** Its inhibition at 1 µM is 16%.

**Q.** And the inhibition at 1 µM ([7]; read-out: % Inhibition Point 2)?
**A.** The inhibition at 1 µM was 17%.

**Q.** What about the inhibition at 1 µM ([7]; read-out: % Inhibition mean) of the same molecule?
**A.** The inhibition at 1 µM was 16%.

**Q.** What about the inhibition at 1 µM ([8]; read-out: % Inhibition Point 1) of the same molecule?
**A.** The inhibition at 1 µM was 11%.

**Q.** And the inhibition at 1 µM ([8]; read-out: % Inhibition Point 2)?
**A.** Its inhibition at 1 µM is 9%.

**Q.** What about the inhibition at 1 µM ([8]; read-out: % Inhibition mean) of the same molecule?
**A.** The inhibition at 1 µM was 10%.

**Q.** And the inhibition at 1 µM ([9]; read-out: % Inhibition Point 1)?
**A.** The inhibition at 1 µM was 4.24%.

**Q.** And the inhibition at 1 µM ([9]; read-out: % Inhibition Point 2)?
**A.** Its inhibition at 1 µM is 1.52%.

**Q.** What about the inhibition at 1 µM ([9]; read-out: % Inhibition mean) of the same molecule?
**A.** Its inhibition at 1 µM is 3%.
